The values below come from patent US12516044B2, “Heterocyclic compounds as immunomodulators” (Incyte Corporation, priority 2015, dated 2026).

This test deals with T1, PD-1/PD-L1 protein/protein interaction (Homo sapiens, UniProt Q9NZQ7).
T1 construct: Recombinant human PD-L1 protein (19-238) with a His-tag at the C-terminus; purchased AcroBiosystems PD1-H5229 (PD-L1-His); PD1-H5257 (PD-1-Fc)
T1 sequence (Q9NZQ7 19-238): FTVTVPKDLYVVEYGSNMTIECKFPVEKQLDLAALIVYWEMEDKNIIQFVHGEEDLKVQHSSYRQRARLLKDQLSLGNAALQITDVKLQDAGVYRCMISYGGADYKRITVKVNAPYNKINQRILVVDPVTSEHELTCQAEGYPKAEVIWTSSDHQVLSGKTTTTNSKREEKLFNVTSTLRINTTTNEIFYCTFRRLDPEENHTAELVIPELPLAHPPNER
Nature of the test: PD-1/PD-L1 Homogeneous Time-Resolved Fluorescence (HTRF) Binding Assay. The conditions noted are these: recombinant human PD-L1 (19-238) His-tag and human PD-1 (25-167) Fc tag; 25° C., PBS pH 7.4. As for the experimental part:
Example A. PD-1/PD-L1 Homogeneous Time-Resolved Fluorescence (HTRF) Binding Assay
The assays were conducted in a standard black 384-well polystyrene plate with a final volume of 20 μL. Inhibitors were first serially diluted in DMSO and then added to the plate wells before the addition of other reaction components. The final concentration of DMSO in the assay was 1%. The assays were carried out at 25° C. in the PBS buffer (pH 7.4) with 0.05% Tween-20 and 0.1% BSA. Recombinant human PD-L1 protein (19-238) with a His-tag at the C-terminus was purchased from AcroBiosystems (PD1-H5229). Recombinant human PD-1 protein (25-167) with Fc tag at the C-terminus was also purchased from AcroBiosystems (PD1-H5257). PD-L1 and PD-1 proteins were diluted in the assay buffer and 10 μL was added to the plate well. Plates were centrifuged and proteins were preincubated with inhibitors for 40 minutes. The incubation was followed by the addition of […] of HTRF detection buffer supplemented with Europium cryptate-labeled anti-human IgG (PerkinElmer-AD0212) specific for Fc and anti-His antibody conjugated to SureLight®-Allophycocyanin (APC, PerkinElmer-AD0059H). After centrifugation, the plate was incubated at 25° C. for 60 min. before reading on a PHERAstar FS plate reader (665 nm/620 nm ratio). Final concentrations in the assay were […] PD1, 10 nM PD-L1, 1 nM europium anti-human IgG and 20 nM anti-His-Allophycocyanin. IC50 determination was performed by fitting the curve of percent control activity versus the log of the inhibitor concentration using the GraphPad Prism 5.0 software.
Consider `Cc1c(NC(=O)c2ncccn2)cccc1-c1ccccc1` [Example 28, N-(2-methylbiphenyl-3-yl)pyrimidine-2-carboxamide], for which the IC50 lay in the range of 100 to 1000 nM. With `Cc1c(NC(=O)c2ncc(CNCCO)cn2)cccc1-c1ccccc1` [Example 6, 5-{[(2-hydroxyethyl)amino]methyl}-N-(2-methylbiphenyl-3-yl)pyrimidine-2-carboxamide], the IC50 is 10 to 100 nM. The same measure for `Cc1c(NC(=O)c2ncc(CNCCO)cc2N(C)C)cccc1-c1ccccc1` [Example 21, 3-(dimethylamino)-5-{[(2-hydroxyethyl)amino]methyl}-N-(2-methylbiphenyl-3-yl)pyridine-2-carboxamide]: 100 to 1000 nM; for `Cc1c(NC(=O)c2ccncn2)cccc1-c1ccccc1` [Example 27, N-(2-methylbiphenyl-3-yl)pyrimidine-4-carboxamide]: 10 to 100 nM; for `Cc1c(NC(=O)c2ccc(CNCCO)nn2)cccc1-c1ccccc1` [Example 12, 6-{[(2-hydroxyethyl)amino]methyl}-N-(2-methylbiphenyl-3-yl)pyridazine-3-carboxamide]: 10 to 100 nM. To `N#Cc1c(NC(=O)c2ccc(CNCCO)cn2)cccc1-c1ccc2c(c1)OCC2` [Example 47, N-[2-cyano-3-(2,3-dihydro-1-benzofuran-6-yl)phenyl]-5-{[(2-hydroxyethyl)amino]methyl}pyridine-2-carboxamide] belongs 10 to 100 nM; to `Cc1c(NC(=O)c2cccnn2)cccc1-c1ccccc1` [Example 29, N-(2-methylbiphenyl-3-yl)pyridazine-3-carboxamide], 100 to 1000 nM; to `Cc1cc(CNCCO)cnc1C(=O)Nc1cccc(-c2ccccc2)c1C` [Example 4, 5-{[(2-hydroxyethyl)amino]methyl}-3-methyl-N-(2-methylbiphenyl-3-yl)pyridine-2-carboxamide], 10 to 100 nM.

For the molecule `Cc1c(NC(=O)c2cc(-c3ccncc3)c(CNCCO)cn2)cccc1-c1ccccc1` [Example 31, 5-{[(2-hydroxyethyl)amino]methyl}-N-(2-methylbiphenyl-3-yl)-4,4′-bipyridine-2-carboxamide], the IC50 lay in the range of 10 to 100 nM. To `Cc1c(NC(=O)c2cc(OCc3cccnc3)ncn2)cccc1-c1ccccc1` [Example 24, N-(2-methylbiphenyl-3-yl)-6-(pyridin-3-ylmethoxy)pyrimidine-4-carboxamide] belongs 100 to 1000 nM; to `Cn1ncc2c(-c3cccc(NC(=O)c4ccc(CNCCO)cn4)c3C#N)cccc21` [Example 49, N-[2-cyano-3-(1-methyl-1H-indazol-4-yl)phenyl]-5-{[(2-hydroxyethyl)amino]methyl}pyridine-2-carboxamide], no more than 10 nM; to `N#Cc1c(NC(=O)c2ccc(CNCCO)cn2)cccc1-c1ccc2c(c1)OCCO2` [Example 10, N-(2-cyano-3-(2,3-dihydrobenzo[b][1,4]dioxin-6-yl)phenyl)-5-((2-hydroxyethylamino)methyl)picolinamide], no more than 10 nM.

Regarding `CC(C)(C)OC(=O)N1CCC=C(c2cccc(NC(=O)c3ccc(CNCCO)cn3)c2C#N)C1` [Example 40, tert-butyl 5-(2-cyano-3-{[(5-{[(2-hydroxyethyl)amino]methyl}pyridin-2-yl)carbonyl]amino}phenyl)-3,6-dihydropyridine-1(2H)-carboxylate], the IC50 is 100 to 1000 nM. `CN1CCOc2cc(-c3cccc(NC(=O)c4ccc(CNCCO)cn4)c3C#N)ccc21` [Example 46, N-[2-cyano-3-(4-methyl-3,4-dihydro-2H-1,4-benzoxazin-7-yl)phenyl]-5-{[(2-hydroxyethyl)amino]methyl}pyridine-2-carboxamide]: the IC50 is 100 to 1000 nM. To `N#Cc1c(NC(=O)c2ccc(CN3CCCC[C@H]3C(=O)O)cn2)cccc1-c1ccc2c(c1)OCCO2` [Example 9, (2S)-1-{[6-({[2-cyano-3-(2,3-dihydro-1,4-benzodioxin-6-yl)phenyl]amino}carbonyl)pyridin-3-yl]methyl}piperidine-2-carboxylic Acid] belongs 10 to 100 nM.
